Results: US20230181905A1, “Systems, Devices, and Methods for Enhancing the Neuroprotective Effects of Non-Invasive Gamma Stimulation with Pharmacological Agents” (Massachusetts Institute of Technology, priority 2021, published 2023)

System: synaptophysin
Experiment: Synaptophysin western blot and immunohistochemistry
Type: in vivo, mouse
Conditions: 5×FAD mice
Procedure: Loss of synapses and neurons are closely associated with higher neuroinflammatory response and cognitive decline in AD. Therefore, synaptic markers in the visual cortex of Plx3397 and/or GENUS treated mice were evaluated. […] Thus, whether these treatments had any effect on neuronal density by immunohistochemical analysis of neuronal marker NeuN was examined (Synaptic Systems, #266 004) positive cells (FIG. 4A).
The visual cortex was dissected out and snap-frozen in liquid nitrogen and stored in an −80° C. freezer until processing. Samples were homogenized using a glass homogenizer with RIPA (50 mM Tris HCl pH 8.0, 150 mM NaCl, 1% NP-40, 0.5% sodium deoxycholate, 0.1% SDS) buffer which contains protease and phosphatase inhibitor. The concentration of proteins in samples were quantified using a Bio-Rad protein assay. Equal concentrations of proteins were prepared and added with SDS—sample buffer. […] of protein was loaded onto 4-20% polyacrylamide gels and electrophoresed. Protein was transferred from acrylamide gels to nitrocellulose membranes for 12 min (Semi-dry system, Bio-Rad). Membranes were blocked using BSA (5% w/v) diluted in TBS containing 0.1% Tween-20 (TBSTw), then incubated in primary antibodies overnight at 4° C. The following day, they were washed three times with TBSTw and incubated with horseradish peroxidase-linked secondary antibodies (GE Healthcare) at room temperature for 60 min. After three further washes with TBSTw, membranes were treated with chemiluminescence substrates and the blots were visualized (Chem doc, Bio-Rad). Signal intensities were quantified using ImageJ 1.46q and normalized to values of loading control.
These observations led to examination of the effect of Plx3397 administration on neuronal integrity. […]
The brain was perfused with PBS and fixed with 4% PFA. […] Signal intensities were quantified using ImageJ 1.46q and normalized to values of loading control.

SMILES: FC(F)(F)c1ccc(CNc2ccc(Cc3c[nH]c4ncc(Cl)cc34)cn2)cn1 [Plx3397, Pexidartinib]
- synaptophysin (hippocampus, chronic Plx3397 vs control): increased
- synaptophysin signals (visual cortex, IHC, Plx3397 50 days): 6524128709±177336289 au
- synaptophysin level (western blot) (visual cortex, control 100±12.03): 185.3±23.83
